Measurements: patent US9113629B2, “4-amino-6-(4-substituted-phenyl)-picolinates and 6-amino-2-(4-substituted-phenyl)-pyrimidine-4-carboxylates and their use as herbicides” (DOW AGROSCIENCES LLC, priority 2013, dated 2015)
Where two headings read alike, the source gives them in different places.

How the values were obtained:
[1] = system: Key Broadleaf Weed and Crop Species; test: Post-emergent Test II herbicidal activity (Table 5); format: in vivo; details: post-emergence, 336 h, 14 days after application; for pest or weed control at 70 g/ha: application rate 70 g ai/ha; for pest or weed control at 140 g/ha: application rate 140 g ai/ha
In short: (§1)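 Plants grown in Metro-Mix 360 (pH 6.0–6.8) in a greenhouse (~15 h photoperiod, 23–29 °C day) to first or second true leaf stage, then sprayed with compound in acetone/DMSO/aqueous crop-oil-surfactant carrier at 187 L/ha by track sprayer. Injury visually scored 0–100% versus untreated plants after 14 d.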

[2] = system: Key Grass and Sedge Weeds as well as Grass Crops; test: Post-emergent Test II herbicidal activity (Table 6); format: in vivo; details: post-emergence, 336 h; for pest or weed control at 70 g/ha: 70 g ai/ha; for pest or weed control at 140 g/ha: 140 g ai/ha
In short: as §1

[3] = ABUTH: velvetleaf (Abutilon theophrasti), read-out: Visual Growth Reduction (%) 14 Days After Application, ABUTH
[4] = AMARE: redroot pigweed (Amaranthus retroflexus), read-out: Visual Growth Reduction (%) 14 Days After Application, AMARE
[5] = BRSNN: oilseed-rape, canola (Brassica napus), read-out: Visual Growth Reduction (%) 14 Days After Application, BRSNN
[6] = CHEAL: lambsquarters (Chenopodium album), read-out: Visual Growth Reduction (%) 14 Days After Application, CHEAL
[7] = EPHHL: wild poinsettia (Euphorbia heterophylla), read-out: Visual Growth Reduction (%) 14 Days After Application, EPHHL
[8] = HELAN: sunflower (Helianthus annuus), read-out: Visual Growth Reduction (%) 14 Days After Application, HELAN
[9] = VIOTR: wild pansy (Viola tricolor), read-out: Visual Growth Reduction (%) 14 Days After Application, VIOTR
[10] = CYPES: yellow nutsedge (Cyperus esculentus), read-out: Visual Growth Reduction (%) 14 Days After Application, CYPES
[11] = DIGSA: crabgrass (Digitaria sanguinalis), read-out: Visual Growth Reduction (%) 14 Days After Application, DIGSA
[12] = ECHCG: barnyardgrass (Echinochloa crus-galli), read-out: Visual Growth Reduction (%) 14 Days After Application, ECHCG
[13] = ORYSA: rice (Oryza sativa), crop, read-out: Visual Growth Reduction (%) 14 Days After Application, ORYSA
[14] = SETFA: giant foxtail (Setaria faberi), read-out: Visual Growth Reduction (%) 14 Days After Application, SETFA
[15] = SORVU: grain sorghum (Sorghum vulgare), read-out: Visual Growth Reduction (%) 14 Days After Application, SORVU
[16] = TRZSS (wheat, Triticum aestivum), crop, read-out: Visual Growth Reduction (%) 14 Days After Application, TRZSS
[17] = ZEAMX: maize, corn (Zea mays), crop, read-out: Visual Growth Reduction (%) 14 Days After Application, ZEAMX

SMILES | pest or weed control at 70 g/ha [1, 3] [%] | pest or weed control at 140 g/ha [1, 3] [%] | pest or weed control at 70 g/ha [1, 4] [%] | pest or weed control at 140 g/ha [1, 4] [%] | pest or weed control at 70 g/ha [1, 5] [%] | pest or weed control at 140 g/ha [1, 5] [%] | pest or weed control at 70 g/ha [1, 6] [%] | pest or weed control at 140 g/ha [1, 6] [%] | pest or weed control at 70 g/ha [1, 7] [%] | pest or weed control at 140 g/ha [1, 7] [%] | pest or weed control at 70 g/ha [1, 8] [%] | pest or weed control at 140 g/ha [1, 8] [%] | pest or weed control at 70 g/ha [1, 9] [%] | pest or weed control at 140 g/ha [1, 9] [%] | pest or weed control at 70 g/ha [2, 10] [%] | pest or weed control at 140 g/ha [2, 10] [%] | pest or weed control at 70 g/ha [2, 11] [%] | pest or weed control at 140 g/ha [2, 11] [%] | pest or weed control at 70 g/ha [2, 12] [%] | pest or weed control at 140 g/ha [2, 12] [%] | further results
COC(=O)c1nc(-c2ccc(C#N)cc2)c(F)c(N)c1Cl [Compound 142] | 95 to 100 | 95 to 100 | 95 to 100 | 95 to 100 | 0 to 29 | 0 to 29 | 95 to 100 | 95 to 100 | 95 to 100 | 95 to 100 | 95 to 100 | 95 to 100 | 75 to 84 | 85 to 94 | 75 to 84 | 85 to 94 | 60 to 74 | 60 to 74 | 75 to 84 | 85 to 94 | pest or weed control at 70 g/ha [2, 13]: 0 to 29%; pest or weed control at 140 g/ha [2, 13]: 0 to 29%; pest or weed control at 70 g/ha [2, 14]: 0 to 29%; pest or weed control at 140 g/ha [2, 14]: 0 to 29%; pest or weed control at 70 g/ha [2, 15]: 45 to 59%; pest or weed control at 140 g/ha [2, 15]: 45 to 59%; pest or weed control at 70 g/ha [2, 16]: 0 to 29%; pest or weed control at 140 g/ha [2, 16]: 30 to 44%; pest or weed control at 70 g/ha [2, 17]: 45 to 59%; pest or weed control at 140 g/ha [2, 17]: 60 to 74%
Nc1c(F)c(-c2ccc(OC(F)F)cc2)nc(C(=O)O)c1Cl [Compound 143] | 85 to 94 | 85 to 94 | 60 to 74 | 85 to 94 | 60 to 74 | 85 to 94 | 85 to 94 | 85 to 94 | 95 to 100 | 95 to 100 | 60 to 74 | 85 to 94 | 30 to 44 | 30 to 44 | 85 to 94 | 85 to 94 | 75 to 84 | 75 to 84 | 95 to 100 | 95 to 100 | pest or weed control at 70 g/ha [2, 13]: 0 to 29%; pest or weed control at 140 g/ha [2, 13]: 30 to 44%; pest or weed control at 70 g/ha [2, 14]: 75 to 84%; pest or weed control at 140 g/ha [2, 14]: 75 to 84%; pest or weed control at 70 g/ha [2, 15]: 85 to 94%; pest or weed control at 140 g/ha [2, 15]: 85 to 94%; pest or weed control at 70 g/ha [2, 16]: 45 to 59%; pest or weed control at 140 g/ha [2, 16]: 60 to 74%; pest or weed control at 70 g/ha [2, 17]: 85 to 94%; pest or weed control at 140 g/ha [2, 17]: 85 to 94%
